From the supplement of paper PMC10307832

Legend:
Experiment in all cases: relative viability (nuclei count vs DMSO), 5 days (fraction); higher = more cells survive
[1] = compound: CC[C@@H](C)CNCC(=O)N1CCC2=C([C@@H]1COC3=CC=CC(=C3)C)C=CS2 [RU-SKI 43] + CCNC(=O)c1noc(-c2cc(C(C)C)c(O)cc2O)c1-c1ccc(CN2CCOCC2)cc1 [Luminespib] (partner 0.01 µM)
Outline: (§1)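 After 5 days of treatment, lung cancer cells in 1536-well plates were fixed and stained in a single step (final 0.05% Triton X-100, 1% formaldehyde, 1 ug/ml Hoechst) and their nuclei counted on 4× images. Treatment had been applied by pin tool the day after seeding as one drug alone or as a fixed anchor-drug dose with five library-drug doses (not always all listed) in √10 steps. Relative viability is the nuclei count of treated wells divided by that of vehicle wells, and values are medians of duplicate plates.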

[2] = compound: CC[C@@H](C)CNCC(=O)N1CCC2=C([C@@H]1COC3=CC=CC(=C3)C)C=CS2 [RU-SKI 43] + C[C@@H](Oc1cc(-c2cnn(C3CCNCC3)c2)cnc1N)c1c(Cl)ccc(F)c1Cl [Crizotinib] (partner 1 µM)
Outline: as §1

[3] = compound: CC[C@@H](C)CNCC(=O)N1CCC2=C([C@@H]1COC3=CC=CC(=C3)C)C=CS2 [RU-SKI 43] + NC(=O)Nc1cc(-c2cccc(F)c2)sc1C(=O)N[C@H]1CCCNC1 [AZD7762] (partner 0.2 µM)
Outline: as §1

[4] = compound: CCc1c2c(nc3ccc(OC(=O)N4CCC(N5CCCCC5)CC4)cc13)-c1cc3c(c(=O)n1C2)COC(=O)[C@]3(O)CC [Irinotecan] + CS(=O)(=O)CCNCc1ccc(-c2ccc3ncnc(Nc4ccc(OCc5cccc(F)c5)c(Cl)c4)c3c2)o1 [Lapatinib] (partner 2 µM)
Outline: as §1

| Cell Line | relative viability ([1]; first compound 0.1 µM) | relative viability ([1]; first compound 0.3162 µM) | relative viability ([1]; first compound 1 µM) | relative viability ([1]; first compound 3.162 µM) | relative viability ([1]; first compound 10 µM) | relative viability ([2]; first compound 0.1 µM) | relative viability ([2]; first compound 0.3162 µM) | relative viability ([2]; first compound 1 µM) | relative viability ([2]; first compound 3.162 µM) | relative viability ([2]; first compound 10 µM) | relative viability ([3]; first compound 0.1 µM) | relative viability ([3]; first compound 0.3162 µM) | relative viability ([3]; first compound 1 µM) | relative viability ([3]; first compound 3.162 µM) | relative viability ([3]; first compound 10 µM) | relative viability ([4]; first compound 0.6325 µM) | relative viability ([4]; first compound 2 µM) | relative viability ([4]; first compound 6.325 µM) | relative viability ([4]; first compound 20 µM) |
| --- | --- | --- | --- | --- | --- | --- | --- | --- | --- | --- | --- | --- | --- | --- | --- | --- | --- | --- | --- |
| ABC-1 | 0.68 | 0.434 | 0.485 | 0.673 | 0.811 | 0.993 | 1.21 | 1.26 | 0.939 | 0.563 | 0.894 | 0.867 | 1.2 | 0.727 | 0.957 | 1.05 | 1.17 | 0.646 | 0.574 |
| H3255 | 0.928 | 0.951 | 1.23 | 0.76 | 0.849 | 0.858 | 0.885 | 0.976 | 0.791 | 0.874 | 0.843 | 1.02 | 1.03 | 0.839 | 0.873 | 0.206 | 0.214 | 0.224 | 0.23 |
| HCC-827 | 0.77 | 0.795 | 0.588 | 0.612 | 0.679 | 0.956 | 1.01 | 0.987 | 0.916 | 0.602 | 0.188 | 0.155 | 0.206 | 0.223 | 0.197 | 0.178 | 0.222 | 0.133 | 0.16 |
| NCI-H1734 | 0.177 | 0.17 | 0.223 | 0.192 | 0.168 | 0.724 | 0.709 | 0.745 | 0.652 | 0.547 | 0.588 | 0.604 | 0.573 | 0.61 | 0.579 | 0.883 | 0.588 | 0.186 | 0.191 |
| EBC-1 |  |  |  |  |  | 0.19 | 0.183 | 0.202 | 0.176 | 0.155 |  |  |  |  |  | 0.219 | 0.172 | 0.21 | 0.15 |
| NCI-H838 | 0.237 | 0.241 | 0.288 | 0.237 | 0.232 | 0.904 | 0.98 | 0.826 | 0.794 | 0.75 | 0.933 | 1.03 | 1 | 0.987 | 0.876 | 1.03 | 0.874 | 0.399 | 0.161 |
| NCI-H1437 | 1.07 | 1.26 | 1.15 | 1.1 | 1.04 | 0.873 | 1.29 | 1.11 | 0.93 | 0.875 | 1.16 | 1.28 | 1.16 | 1.12 | 1.08 | 0.527 | 0.493 | 0.253 | 0.117 |
| SK-MES-1 | 0.761 | 0.854 | 0.818 | 0.929 | 0.75 | 0.862 | 1.07 | 1.06 | 1.09 | 0.98 |  |  |  |  |  | 0.544 | 0.414 | 0.25 | 0.32 |
| NCI-H2342 | 0.686 | 0.667 | 0.713 | 0.62 | 0.617 |  |  |  |  |  | 0.474 |  | 0.564 | 0.468 | 0.477 |  |  |  |  |
